The text below walks through data of US12304916B2, “Thienopyridinyl and thiazolopyridinyl compounds useful as IRAK4 inhibitors” (BRISTOL-MYERS SQUIBB COMPANY, priority 2019, dated 2025).

Molecules are shown by their SMILES. pEC50, pIC50: −log10 of the molar value.

IRAK4, sequence (Q9NWZ3 whole entry, species assumed): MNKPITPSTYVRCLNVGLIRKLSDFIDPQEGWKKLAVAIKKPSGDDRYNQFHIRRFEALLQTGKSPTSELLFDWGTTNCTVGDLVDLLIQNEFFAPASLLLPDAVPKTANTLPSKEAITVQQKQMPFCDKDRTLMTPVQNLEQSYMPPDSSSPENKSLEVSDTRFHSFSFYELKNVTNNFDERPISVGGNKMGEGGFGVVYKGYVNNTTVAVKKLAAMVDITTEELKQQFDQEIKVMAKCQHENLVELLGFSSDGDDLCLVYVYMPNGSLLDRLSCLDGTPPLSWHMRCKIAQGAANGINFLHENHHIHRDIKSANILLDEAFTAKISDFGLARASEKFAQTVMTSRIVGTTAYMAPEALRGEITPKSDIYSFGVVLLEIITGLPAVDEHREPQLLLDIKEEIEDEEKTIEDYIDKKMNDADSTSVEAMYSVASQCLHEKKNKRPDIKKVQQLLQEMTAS

One assay addresses IRAK4 (Homo sapiens (Human), UniProt Q9NWZ3). The experiment in a line: IRAK4 Inhibition Assay. The assay is classed as biochemical. The following applies: ATP 500 μM; IRAK4 0.6 nM; 60 min at room temperature. How it is done: The assays were performed in U-bottom 384-well plates. The final assay volume was 30 μL prepared from 15 μL additions of enzyme and substrates (fluoresceinated peptide and ATP) and test compounds in assay buffer (20 mM HEPES pH 7.2, 10 mM MgCl2, 0.015% Brij 35 and 4 mM DTT). The reaction was initiated by the combination of IRAK4 with substrates and test compounds. The reaction mixture was incubated at room temperature for 60 min. and terminated by adding 45 μL of 35 mM EDTA to each sample. The reaction mixture was analyzed on the Caliper LABCHIP® 3000 (Caliper, Hopkinton, MA) by electrophoretic separation of the fluorescent substrate and phosphorylated product. Inhibition data were calculated by comparison to no enzyme control reactions for 100% inhibition and vehicle-only reactions for 0% inhibition. The final concentrations of reagents in the assays are ATP, 500 μM; FL-IPTSPITTTYFFFKKK peptide 1.5 μM; IRAK4, 0.6 nM; and DMSO, 1.6%.
In general, pIC50 refers to −log10 of the IC50, conventionally taken in molar units. `CC(C)(O)[C@H](F)CNC(=O)c1cnc2sc(-c3cncs3)cc2c1NC1COC1` [Example 53, (R)-N-(2-fluoro-3-hydroxy-3-methylbutyl)-4-(oxetan-3-ylamino)-2-(thiazol-5-yl)thieno[2,3-b]pyridine-5-carboxamide]: the negative-log IC50 (pIC50) was 7.82.

`CC(C)Nc1c(C(=O)NC[C@@H](F)C(C)(C)O)cnc2sc(-c3cncs3)cc12` [Example 27, (R)-N-(2-fluoro-3-hydroxy-3-methylbutyl)-4-(isopropylamino)-2-(thiazol-5-yl) thieno[2,3-b]pyridine-5-carboxamide]: the pIC50 is 8.70.

With `CC(C)Nc1c(-c2cn(CC3CC3)nn2)cnc2sc(-c3cncs3)cc12` [Example 78, 5-(1-(cyclopropylmethyl)-1H-1,2,3-triazol-4-yl)-N-isopropyl-2-(thiazol-5-yl)thieno[2,3-b]pyridin-4-amine], the pIC50 was 8.06.

Regarding `CC(C)Nc1c(C(=O)NCCC(C)(C)O)cnc2sc(-c3cncs3)cc12` [Example 44, N-(3-hydroxy-3-methylbutyl)-4-(isopropylamino)-2-(thiazol-5-yl)thieno[2,3-b]pyridine-5-carboxamide], the pIC50 is 8.09.

As to `CC(C)CCNC(=O)c1cnc2sc(-c3ccncc3)cc2c1NC(C)C` [Example 29, N-isopentyl-4-(isopropylamino)-2-(pyridin-4-yl)thieno[2,3-b]pyridine-5-carboxamide], the pIC50 was 7.89.

Take `C[C@H](CO)Nc1c(C(=O)NCCCN2CCOCC2)cnc2sc(-c3ccccc3)nc12` [Example 8, (R)-7-((1-hydroxypropan-2-yl)amino)-N-(3-morpholinopropyl)-2-phenylthiazolo[5,4-b]pyridine-6-carboxamide]: the pIC50 was 6.32.

As to `CC(C)CCc1cn(-c2cnc3sc(-c4ccncc4)cc3c2NC(C)C)nn1` [Example 76, 5-(4-isopentyl-1H-1,2,3-triazol-1-yl)-N-isopropyl-2-(pyridin-4-yl)thieno[2,3-b]pyridin-4-amine], the negative logarithm of the IC50 (pIC50) is 7.36.

In the case of `CC(C)Nc1c(C(=O)NCC(C)(C)CO)cnc2sc(-c3cncs3)cc12` [Example 46, N-(3-hydroxy-2,2-dimethylpropyl)-4-(isopropylamino)-2-(thiazol-5-yl)thieno[2,3-b]pyridine-5-carboxamide], the negative-log IC50 (pIC50) was 6.57.

As for `CC(C)Nc1c(C(=O)NC[C@@H](F)C(C)(C)O)cnc2sc(-c3cccnc3)nc12` [Example 11, (R)-N-(2-fluoro-3-hydroxy-3-methylbutyl)-7-(isopropylamino)-2-(pyridin-3-yl)thiazolo[5,4-b]pyridine-6-carboxamide], the negative logarithm of the IC50 (pIC50) is 7.92.

With `C[C@H](CO)Nc1c(C(=O)NC[C@@H](F)C(C)(C)O)cnc2sc(-c3ccccc3)nc12` [Example 6, N-((R)-2-fluoro-3-hydroxy-3-methylbutyl)-7-(((R)-1-hydroxypropan-2-yl)amino)-2-phenylthiazolo[5,4-b]pyridine-6-carboxamide], the pIC50 was 7.40.

On to `O=C(N[C@H]1CC[C@H](O)CC1)c1cnc2sc(-c3cncs3)cc2c1Nc1cnn(CC(F)F)c1` [Example 49, 4-((1-(2,2-difluoroethyl)-1H-pyrazol-4-yl)amino)-N-((1s,4s)-4-hydroxycyclohexyl)-2-(thiazol-5-yl)thieno[2,3-b]pyridine-5-carboxamide], for which the pIC50 is 6.39.

As for `CC(C)Nc1c(C(=O)NC[C@@H](F)C(C)(C)O)cnc2sc(-c3ccc4nccn4c3)cc12` [Example 26, (R)-N-(2-fluoro-3-hydroxy-3-methylbutyl)-2-(imidazo[1,2-a]pyridin-6-yl)-4-(isopropylamino)thieno[2,3-b]pyridine-5-carboxamide], the pIC50 was 7.56.

For `COCCNC(=O)c1cnc2sc(-c3cncs3)cc2c1Nc1cnn(CC(F)F)c1` [Example 51, 4-((1-(2,2-difluoroethyl)-1H-pyrazol-4-yl)amino)-N-(2-methoxyethyl)-2-(thiazol-5-yl)thieno[2,3-b]pyridine-5-carboxamide], the pIC50 was 5.91.

Consider `CC(C)(O)[C@H](F)CNC(=O)c1cnc2sc(-c3cncs3)cc2c1Nc1cnn(CC(F)F)c1` [Example 52, (R)-4-((1-(2,2-difluoroethyl)-1H-pyrazol-4-yl)amino)-N-(2-fluoro-3-hydroxy-3-methylbutyl)-2-(thiazol-5-yl)thieno[2,3-b]pyridine-5-carboxamide], for which the negative logarithm of the IC50 (pIC50) is 7.14.

Consider `COc1ncc(-c2cc3c(NC(C)C)c(C(=O)NC[C@@H](F)C(C)(C)O)cnc3s2)s1` [Example 58, (R)-N-(2-fluoro-3-hydroxy-3-methylbutyl)-4-(isopropylamino)-2-(2-methoxythiazol-5-yl)thieno[2,3-b]pyridine-5-carboxamide], for which the pIC50 was 7.27.

`CC(C)Nc1c(C(=O)NCCC2CC2)cnc2sc(-c3cccnc3)nc12` [Example 19, N-(2-cyclopropylethyl)-7-(isopropylamino)-2-(pyridin-3-yl)thiazolo[5,4-b]pyridine-6-carboxamide]: the pIC50 was 7.14.

For the compound `CC(C)Nc1c(C(=O)NC2CC(O)C2)cnc2sc(-c3cncs3)cc12` (stereo not drawn) [Example 61, N-(3-hydroxycyclobutyl)-4-(isopropylamino)-2-(thiazol-5-yl) thieno[2,3-b]pyridine-5-carboxamide], the negative-log IC50 (pIC50) was 7.01.

For the compound `CC(C)Nc1c(C(=O)N[C@H](C)CCO)cnc2sc(-c3cncs3)cc12` [Example 40, (R)-N-(4-hydroxybutan-2-yl)-4-(isopropylamino)-2-(thiazol-5-yl)thieno[2,3-b]pyridine-5-carboxamide], the pIC50 was 6.90.

On to `CC(C)CCNC(=O)c1cnc2sc(-c3ccnnc3)cc2c1NC(C)C` [Example 33, N-isopentyl-4-(isopropylamino)-2-(pyridazin-4-yl)thieno[2,3-b]pyridine-5-carboxamide], for which the negative-log IC50 (pIC50) was 7.54.

Consider `CC(C)Nc1c(C(=O)NC[C@@H](F)C(C)(C)O)cnc2sc(-c3ccccc3)nc12` [Example 2, (R)-N-(2-fluoro-3-hydroxy-3-methylbutyl)-7-(isopropylamino)-2-phenylthiazolo[5,4-b]pyridine-6-carboxamide], for which the pIC50 was 7.81.

On to `CC(C)Nc1c(C(=O)NCCC2CCNC2)cnc2sc(-c3ccc(=O)[nH]c3)cc12` (stereo not drawn) [Example 70, 4-(isopropylamino)-2-(6-oxo-1,6-dihydropyridin-3-yl)-N-(2-(pyrrolidin-3-yl)ethyl)thieno[2,3-b]pyridine-5-carboxamide], for which the pIC50 is 7.65.

Take `CC(C)Nc1c(C(=O)NCC2CCS(=O)(=O)C2)cnc2sc(-c3cncs3)cc12` (stereo not drawn) [Example 69, N-((1,1-dioxidotetrahydrothiophen-3-yl)methyl)-4-(isopropylamino)-2-(thiazol-5-yl)thieno[2,3-b]pyridine-5-carboxamide]: the negative logarithm of the IC50 (pIC50) was 7.14.

Consider `CC(C)(O)[C@H](F)CNC(=O)c1cnc2sc(-c3ccccc3)nc2c1NC1CC1` [Example 1, (R)-7-(cyclopropylamino)-N-(2-fluoro-3-hydroxy-3-methylbutyl)-2-phenylthiazolo[5,4-b]pyridine-6-carboxamide], for which the pIC50 is 7.40.

Regarding `CC(C)(O)[C@H](F)CNC(=O)c1cnc2sc(-c3ccccc3)nc2c1NC1CCOCC1` [Example 4, (R)-N-(2-fluoro-3-hydroxy-3-methylbutyl)-2-phenyl-7-((tetrahydro-2H-pyran-4-yl)amino)thiazolo[5,4-b]pyridine-6-carboxamide], the pIC50 was 8.10.

For `CC(C)Nc1c(C(=O)NCc2cocn2)cnc2sc(-c3cncs3)cc12` [Example 41, 4-(isopropylamino)-N-(oxazol-4-ylmethyl)-2-(thiazol-5-yl) thieno[2,3-b]pyridine-5-carboxamide], the pIC50 is 7.67.

For `CC(C)Nc1c(C(=O)NCCCNS(C)(=O)=O)cnc2sc(-c3ccc(=O)[nH]c3)cc12` [Example 67, 4-(isopropylamino)-N-(3-(methylsulfonamido)propyl)-2-(6-oxo-1,6-dihydropyridin-3-yl)thieno[2,3-b]pyridine-5-carboxamide], the pIC50 was 7.37.

On to `CC(C)Nc1c(C(=O)NC[C@@H](F)C(C)(C)O)cnc2sc(-c3c[nH]c4ncc(F)cc34)cc12` [Example 28, (R)-2-(5-fluoro-1H-pyrrolo[2,3-b]pyridin-3-yl)-N-(2-fluoro-3-hydroxy-3-methylbutyl)-4-(isopropylamino)thieno[2,3-b]pyridine-5-carboxamide], for which the pIC50 is 7.12.

Consider `Cc1cc(CNC(=O)c2cnc3sc(-c4cncs4)cc3c2NC(C)C)on1` [Example 35, 4-(isopropylamino)-N-((3-methylisoxazol-5-yl)methyl)-2-(thiazol-5-yl)thieno[2,3-b]pyridine-5-carboxamide], for which the negative logarithm of the IC50 (pIC50) is 7.22.

Another assay has as its system IL-6 levels in human whole blood stimulated with a TLR2 agonist (lipoteichoic acid). Description: IRAK4 Whole Blood Assay. The assay is classed as cell-based. The following applies: 10 μg/mL lipoteichoic acid for 5 hours, IL-6 readout. As for the experimental part: Human whole blood containing the anti-coagulant ACD-A was plated in 384-well plate (25 μL/well) and incubated with compounds for 60 minutes at 37° C. in a 5% CO2 incubator. The blood was stimulated with a TLR2 agonist, 10 μg/mL final concentration of lipoteichoic acid (Invivogen, San Diego, CA) in 25 μL RPMI (Gibco) for 5 hours in a 5% CO2 incubator. At the end of the incubation, plates were centrifuged at 2300 rpm for 5 minutes. Supernatants were harvested and analyzed for IL-6 levels by Flow Cytometry beads assay (BD Biosciences, San Jose, CA).
The pEC50 is −log10 of the EC50, conventionally taken in molar units. For `CC(C)(O)[C@H](F)CNC(=O)c1cnc2sc(-c3cncs3)cc2c1NC1COC1` [Example 53, (R)-N-(2-fluoro-3-hydroxy-3-methylbutyl)-4-(oxetan-3-ylamino)-2-(thiazol-5-yl)thieno[2,3-b]pyridine-5-carboxamide], the pEC50 is 5.44.

Consider `CC(C)Nc1c(C(=O)NC[C@@H](F)C(C)(C)O)cnc2sc(-c3cncs3)cc12` [Example 27, (R)-N-(2-fluoro-3-hydroxy-3-methylbutyl)-4-(isopropylamino)-2-(thiazol-5-yl) thieno[2,3-b]pyridine-5-carboxamide], for which the pEC50 was 6.24.

Compound `CC(C)Nc1c(-c2cn(CC3CC3)nn2)cnc2sc(-c3cncs3)cc12` [Example 78, 5-(1-(cyclopropylmethyl)-1H-1,2,3-triazol-4-yl)-N-isopropyl-2-(thiazol-5-yl)thieno[2,3-b]pyridin-4-amine] gave a pEC50 of less than 4.70.

For `CC(C)Nc1c(C(=O)NCCC(C)(C)O)cnc2sc(-c3cncs3)cc12` [Example 44, N-(3-hydroxy-3-methylbutyl)-4-(isopropylamino)-2-(thiazol-5-yl)thieno[2,3-b]pyridine-5-carboxamide], the pEC50 was 6.18.

For `CC(C)CCNC(=O)c1cnc2sc(-c3ccncc3)cc2c1NC(C)C` [Example 29, N-isopentyl-4-(isopropylamino)-2-(pyridin-4-yl)thieno[2,3-b]pyridine-5-carboxamide], the negative logarithm of the EC50 (pEC50) is 5.62. This pEC50 lies 0.56 log units lower than the previous one.
